# According to patent US20240350647A1, “STING SENSITIZING AGENTS” (STipe Therapeutics ApS, priority 2023, published 2024):
# “Also recorded” adds a separate entry of the source. Where a SMILES comes first, the peptide text is derived from it. Bridges are numbered along the chain shown (N, C = ends). [ ]: non-standard residue; d: D form. The star is where a group is joined. C16 diacid = O=C(O)CCCCCCCCCCCCCCC(=O)*; AEEA = NCCOCCOCC(=O)O
# How the values were obtained:
# [1] = In vitro metabolic stability in fresh blood; assay type: in vitro ADME; details: 37° C.; mouse, rat and human blood
# Description: Fresh blood from mouse (CD-1) and rat (Wistar) was collected from lab animals. Human blood was collected from healthy donors at local hospital or acquired from commercial vendor (BioIVT). Blood from non-human primates (Cynomolgus macaque) was acquired from commercial vendor (BioTVT).
# For mouse, rat and human blood, 5.0 μg/mL of tested agent (except Agent 1 in human blood) was diluted from stock solution in DMSO to a final DMSO concentration of 0.5% and incubated in 1000 μL of blood at 37° C., in duplicate. At 0, 5, 15, 30, and 60 minutes, 180 μL was sampled and centrifuged at 2000 g for 1 min, 80 μL supernatant was taken and diluted 1:1 with water followed by precipitation with acetonitrile containing 5% TFA (internal standard 100 nM leucine enkephalin+Glu1 fibrinopeptide B). The obtained supernatant 60 μL was further diluted with 30 μL 20% DMSO in ultra-pure water and submitted for immediate analysis by LC-MS/MS. The controls were 1 μM propantheline bromide (mouse, human) or 1 μM enalapril (rat).
# Incubation of Agent 1 in blood from human and monkey was performed in a similar manner. A 25 μM solution of Agent 1 was prepared with 5% DMSO and 22.5% methanol in water. […]
# The peak areas were determined against a calibration curve and the T0 sample was set to 100%. The disappearance rate (k) was calculated and the half-life for each incubation was determined (t½=ln 2/k).
# [2] = Pharmacokinetics after 30-min intravenous infusion, cynomolgus monkey; assay type: in vivo; details: 4 mg/kg 30 min IV infusion
# Description: Test agents were formulated in 2% (v/v) propylene glycol in 25 mM HEPES, pH 7.4 and administered with a bolus injection at 10.0 mg/kg via the tail vain to male CD-1 mice (Charles River Laboratories) or male Wistar rats (Charles River Laboratories), or with a 30-min intravenous infusion at 4 mg/kg to male cynomolgus monkeys.
# Blood samples were collected at 2.5, 5, 10, 30, 60, 120, 240 and 480 minutes after administration (mouse and rat), or at 5, 15, 30, 60, 120, 240, 360, 480 and 1440 min (Agent 1) or at 5, 15, 30, 45, 60, 90, 150, 240 and 480 min (Agent 2) after the start of infusion in monkeys. […]
# Monkey samples, Agent 1: Separation was done with a C18 column (Waters Acquity UPLC BEH C18 (50×2.1 mm, 1.7 μm)), using a gradient between 0.1% formic acid in water and 0.1% formic acid in acetonitrile. […] The range of quantitation was 10-3,000 ng/mL.
# Monkey samples, Agent 2: Separation was done with a C18 column (Waters Acquity CSH C18 (50×2.1 mm, 1.7 μm)), using a gradient between 0.2% formic acid in acetonitrile and 0.2% formic acid in water. […] The range of quantitation was 10-10,000 ng/mL.
# Non-compartmental PK analysis on plasma concentration versus time data was analyzed by non-compartmental approaches using the WinNonlin software program (version 6.3 or above, Pharsight, Mountain View, CA). […]
compound,measurement,setting,value
CC[C@H](C)[C@H](NC(=O)[C@H](CC(N)=O)NC(=O)[C@H](CCCCN)NC(=O)[C@H](C)NC(=O)[C@H](CCCCN)NC(=O)[C@H](CCCCN)NC(=O)COCCOCCNC(=O)COCCOCCNC(=O)CCCCCCCCCCCCCCC(=O)O)C(=O)N[C@H](C(=O)N[C@@H](CC(C)C)C(=O)N[C@@H](CC(C)C)C(=O)N[C@@H](CCCCN)C(=O)NCC(=O)N[C@@H](CC(C)C)C(=O)N[C@@H](CCC(=O)O)C(=O)N[C@H](C(=O)N[C@H](C(=O)N[C@@H](CC(N)=O)C(=O)N[C@@H](CC(=O)O)C(=O)N[C@@H](Cc1c[nH]c2ccccc12)C(=O)N[C@@H](Cc1c[nH]cn1)C(=O)N[C@@H](Cc1ccccc1)C(=O)N[C@H]1CSSC[C@@H](C(N)=O)NC(=O)[C@@H](CCCNC(=N)N)NC(=O)[C@H](CCCNC(=N)N)NC(=O)[C@@H](CCCCN)NC(=O)[C@H](CCCCN)NC(=O)[C@@H](CCCNC(=N)N)NC(=O)CNC(=O)[C@@H](CCCNC(=N)N)NC(=O)[C@H](CCCNC(=N)N)NC(=O)[C@@H](CCCNC(=N)N)NC1=O)[C@@H](C)CC)C(C)C)C(C)C [Agent 1] ({C16 diacid-AEEA-AEEA}-KKAKNIVLLKGLEVINDWHFC[dR]R[dR]G[dR]K[dK]R[dR]C-NH2; disulfide 21-31),metabolic stability in fresh blood (half-life) compared to Agent 2 and Agent 3,[1],better stability; also recorded: considerably reduces the metabolism
same,"increase in exposure (AUC0-inf) compared to Agent 2, at equal dose",[2],~13 fold
